Test results published in patent US7507792B2, “MDA-7 proteins and methods of use thereof” (The Trustees of Columbia University In The City of New York, priority 1993, dated 2009).

Tests used:
[1] = test system: mda-6 (WAF1/CIP1/SDI1); format: cell-based, human; details: HL-525, RA 1 μM; for time of treatment at which mda-6 expression is induced: TPA 3 nM, Vit D3 400 nM, 1 to 12 h test period
Protocol: HL-60 cells were originally provided by Dr. R. C. Gallo (National Cancer Institute, Bethesda, Md.) (Collins et al., 1978; Huberman & Callaham, 1979). HL-60 cells designated HL-525 were derived by cloning HL-60 cells after subculturing 102 times in the presence of increasing concentrations (up to 3 μM) of TPA at 5- to 8-day intervals (Homma et al., 1986; Mitchell et al., 1986). […] Prior to the experiments described in this study, the HL-525 cells were subcultured more than 20 times in the absence of TPA. Cells were grown in 100-mm tissue culture dishes in RPMI 1640 medium supplemented with 20% fetal bovine serum, penicillin (100 units/ml) and streptomycin (100 μg/ml) (Grand Island Biological Co., NY) at 37° C. in an atmosphere of 5% CO2 in air in a humidified incubator. The 1,25-(OH)2D3(Vit D3) and TPA were dissolved in a final concentration of 0.01% DMSO, and all-trans retinoic acid (RA) was dissolved in 0.1% DMSO in culture medium. […] Control cultures were treated with DMSO at a final concentration of 0.1% in culture medium. For experiments designed to test the effect of DMSO on HL-60 and HL-525 cells, DMSO was added to tissue culture medium at a final concentration of 1%. Stock solutions of CHX (10 mg/ml) were prepared in culture medium. CHX was added at a final concentration of 10 μg/ml. To examine a requirement for protein synthesis on mda-6 gene expression, HL-60 or HL-525 cells were seeded into 150 mm Petri dishes (5×10^5 cells/ml) in 30 ml of medium. CHX was added to a final concentration of 10 μg/ml 15 min prior to the addition of TPA to 3 nM. Cells were harvested at various times after addition of TPA for subsequent RNA isolation and analysis.
RNA was purified by centrifugation through a CsC1 cushion as described by Chirgwin et al. (1979). Ten μg of RNA was denatured with glyoxal/DMSO, electrophoresed on 1.0% agarose gels, transferred to nylon membranes, hybridized to a ^32P-labeled mda-6 probe (Jiang and Fisher, 1993) and then after stripping the membrane hybridized to a ^32P-labeled rat GAPDH probe (Fort et al., 1985), as described previously (Reddy et at., 1991; Su et al., 1991; Jiang et al., 1992). Following hybridization, the filters were washed and exposed for autoradiography (Reddy et al., 1991; Su et al., 1991; Jiang et al., 1992). mda-6 and GAPDH gene expression were also determined by reverse transcription-polymerase chain reaction (RT-PCR) as described (Adollahi et al. 1991; Lin et al., 1994). Total cytoplasmic RNA was treated with 0.5 units DNase (Boehringer-Mannheim Biochemicals)/μg RNA in 15% glycerol, 10 mM Tris, pH 7.5, 2.5 mM MgCl2, 0.1 mM EDTA, 80 mM KC1, 1 mM CaCl2 and 1 unit/ml RNasin (Promega) at 30° C. for 10 min. RNA was extracted with phenol-chloroform, precipitated with sodium acetate/ethanol and RNA pellets were resuspended in diethylpyrocarbonate-treated H2O. One μg of total RNA was reverse transcribed with 200 units of murine leukemia virus reverse transcriptase (Bethesda Research Laboratories) in 20 μl containing 1 mM deoxyribonucleotide triphosphates, 4 mM MgCl2, 10 mM Tris, pH 8.3, 50 mM KC1, 0.001% gelatin and 0.2 μg oligo-dT primer. Samples were diluted to 100 μl with buffer containing 0.2 mM deoxyribonucleotide triphosphates, 2 mM MgCl2, 10 mM Tris, pH 8.3, 50 mM KC1 and 0.001% gelatin. […]

[2] = test system: H0-1 human melanoma cell line; experiment: 96-h growth suppression (cell number by Coulter Counter); format: cell-based; details: for Growth Suppression (reversible): H0-1 cells, degree of initial 96 hr growth suppression versus untreated control
Protocol: FIG. 1A-B Effect of continuous exposure to various growth and differentiation modulating agents on the 96-h growth of the human melanoma cell line, H0-1. Cells were seeded at 5×10^4/35-mm tissue culture plate and 24 h later the medium was changed with the indicated compounds. Cell numbers were determined by Coulter Counter after 96-h growth. Further details can be found in Materials and Methods.
The H0-1 cell line is a melanotic melanoma derived from a person and was used between passage 100 and 125 (6,8,13). H0-1 cells were kindly provided by Dr. Beppino C. Giovanella, Stehlin Foundation for Cancer Research, Houston, Tex. Cultures were grown at 37° C. in a 95% air 5% CO2-humidified incubator in Dulbecco's modified Eagle's medium (DMEM) supplemented with 10% fetal bovine serum (DMEM-10) (Hyclone, Logan, Utah). H0-1 cells were maintained in the logarithmic stage of growth by subculturing (1:5 or 1:10) prior to confluency approximately every 4 to 5 days. […] Total cell numbers were determined after days 4, 7, 14, and 21, using a ZM Coulter Counter, and viable cell numbers were determined by trypan blue dye exclusion (6). […] Increases in cell number (two or more population doublings) after removal of the inducing agent(s) was considered reversible growth suppression. […] Conditioned medium was collected from treated cultures, contaminating cells were removed by centrifugation at 1000 rpm/10 min., and conditioned medium was stored at 4° C. until assayed for gene modulatory activity. Control conditioned medium was obtained as experimental conditioned medium from cells receiving only a medium change 24 hours after plating in the absence of test compound(s) and growth for 72 hours in DMEM-10.

[3] = test system: mda-5; experiment: mda-5 expression (Northern blotting); format: cell-based, human; details: H0-1
Protocol: The mass excision of the library was performed using ExAssist helper phage as described above. The SOLR strain of Escherichia coli and cDNA phagemids were mixed at 37° C. for 15 min and plated onto LB plates containing ampicillin and IPTG/X-gal. White colonies were chosen at random, isolated and grown in LB medium. Plasmid minireps and restriction enzyme digestions were performed to confirm the presence of inserts. The inserts were isolated and used as robes for Northern blotting analysis (5,25). […] Radiolabeled probes were generated by random oligonucleotide priming (25). Prehybridization, hybridization, posthybridization washes, and autoradiography were performed as described (5,18,25).

[4] = 96 hours, doses of FIG. 15 legend

Row | SMILES | time of treatment at which mda-6 expression is detected ([1]; extended treatment 12 h to 6 d) [days] | time of treatment at which mda-6 expression is induced [1] [h] | inhibition of H0-1 growth ([2]; H0-1, 96 hours, FIG. 1 concentrations) | Growth Suppression (reversible) ([2]; Table 1) | Growth Suppression (reversible) ([2]; Table 2) | mda-5 expression [3, 4] | mda-5 expression ([3]; 24 hours, doses of FIG. 19, phenyl butyrate 24 hours, 4 days or 7 days)
1 | CC1=C(/C=C/C(C)=C/C=C/C(C)=C/C(=O)O)C(C)(C)CCC1 [RA, trans-retinoic acid] | 2 | > 12 | no inhibition of growth | − (− = no significant change in growth (<10% reduction in growth in comparison with untreated control cultures)) | − (− = no significant change in growth (<10% reduction in growth in comparison with untreated control cultures)) | No change in expression | –
2 | CCCCCCCCCCCCCC(=O)O[C@@H]1[C@@H](C)[C@@]2(O)[C@@H](C=C(CO)C[C@]3(O)C(=O)C(C)=C[C@@H]23)[C@@H]2C(C)(C)[C@]12OC(C)=O [TPA, 12-O-tetradecanoyl-phorbol-13-acetate] | – | 12 | – | – | – | – | –
3 | C=C(C)[C@@]12O[C@@]3(c4ccccc4)O[C@@H]1[C@@H]1[C@@H]4O[C@]4(CO)[C@@H](O)[C@]4(O)C(=O)C(C)=C[C@H]4[C@@]1(O3)[C@H](C)[C@H]2OC(=O)/C=C/C=C/c1ccccc1 [MEZ, mezerein] | – | – | – | 1+ (1+ = ~30% reduction in growth in comparison with untreated control cultures) | 1+ (1+ = ~30% reduction in growth in comparison with untreated control cultures) | No change in expression | No change in expression
